Legend:
[1] = system: ovalbumin actively sensitized allergic conjunctivitis model of rabbits; assay: Allergic conjunctivitis model evaluation test; assay type: in vivo, rabbit; settings: 1% suspension, eye drop 50 μL four times a day for 4 days plus once; 0.5 hour after challenge
Experimental: In order to evaluate an anti-allergic action of the present compounds on allergic conjunctivitis, an inhibitory effect on hyperemia in an ovalbumin actively sensitized allergic conjunctivitis model of rabbits was investigated. Incidentally, this effect was evaluated by calculating an inhibitory ratio from the score of the base agent administered group (control group) and the score of the test compound administered group.
A base agent containing a general additive(s) was added to the test compound to prepare test compound suspensions with 1% (WN) and 3% (W/V).
By using male JW rabbits, ovalbumin (200 μg/mL/physiological saline solution) adsorbed on aluminum hydroxide gel was injected 200 μL per eye into bulbar conjunctiva of both eyes of rabbits, respectively, to perform active sensitization.
After 14 days from sensitization or later, the test compound suspension was eye-dropped four times a day for 4 days, and then, at the next day, it was eye-dropped (instillation dose: 50 μL/time) once to both eyes. Incidentally, the base agent was similarly eye-dropped to the base agent administered group (control group).
One hour after the final eye dropping of the test compound suspension, a physiological saline solution containing 0.02% (W/V) of ovalbumin was administered from rabbit ear vein at a dose of 1.5 mL per 1 kg of rabbit to induce allergic conjunctivitis.
After 0.5 hour of the challenge, the degree of hyperemia symptoms of both ocular conjunctiva of rabbits was evaluated according to the following criteria, and the average value of the total of these scores was calculated. […]

[2] = system: TNFα production in rat whole blood; assay: TNFα production inhibitory action evaluation test (LPS stimulation ex vivo, ELISA); assay type: cell-based; settings: 20 hours, 200 μM test compound solution 10 μL/well, DEX treated group = 100, read-out: TNFα production inhibitory ratio (% DEX)
Experimental: In order to evaluate an action of the present compound as a GR agonist, a TNFα production inhibitory action in rat whole blood after LPS stimulation ex vivo was investigated. For the measurement of the TNFα production amount, the ELISA method (manufactured by R&D Systems, Cat No. RTA00) was used, and a procedure was carried out according to the protocol attached thereto. Hereinafter, the specific method will be described.
LPS solution: LPS was dissolved in PBS(−) and diluted with RPMI 1640 to prepare an LPS solution with a concentration of 2 μg/mL.
After the test compound was dissolved in dimethylsulfoxide, the solution was diluted with PBS(−) to prepare 200 μM of a test compound solution. In addition, DEX was similarly dissolved to prepare 200 μM of a DEX solution, and a TNFα production inhibitory ratio of DEX was measured, and used for calculation of Efficacy (% DEX).
• 1) Blood was collected from 3 to 5 rats using an injection syringe treated with heparin from the abdominal aorta under isoflurane anesthesia. The rats confirmed death after lething the whole blood. • 2) The blood of 3 to 5 rats pooled in a 96-well round bottom culture plate was seeded at each 180 μL/well. • 3) It was cultured (37° C., 5% CO2, 95% air) for about 1 hour. • 4) The test compound solution was added each 10 μL/well, and cultured for 1 hour. • 5) LPS solution was added each 10 μL/well. • 6) The sample in which 2% dimethylsulfoxide-containing PBS(−) was added with each 10 μL/well in place of each test compound solution, and RPMI 1640 was added with each 10 μL/well in place of the LPS solution was made a negative control. • 7) The sample in which 2% dimethylsulfoxide-containing PBS(−) was added with each 10 μL/well in place of each test compound solution was made a positive control. • 8) After completion of 20 hours cultivation, the supernatant was recovered and the amount of TNFα released in the supernatant was measured by using an ELISA Kit. • 9) The TNFα production inhibitory ratio was calculated according to the following calculation formula. (Calculation of TNFα Production Inhibitory Ratio)
TNFα production inhibitory ratio (%) was calculated according to the following formula. TNFα production inhibitory ratio (%)=100×{1−(TNFα production amount of each test compound solution−average value of TNFα production amount of negative control group)/(average value of TNFα production amount of positive control group−average value of TNFα production amount of negative control group)}(%)
Further, a TNFα production inhibitory ratio (Efficacy (% DEX)) when the DEX treated group was made 100 was calculated. Efficacy (% DEX)=100×{(average value of TNFα production inhibitory ratio of each test compound solution)/(average value of TNFα production inhibitory ratio of DEX treated group)}(%)

[3] = target: Recombinant human GR (Homo sapiens (Human), UniProt P04150); assay: GR competitive binding assay by fluorescence polarization; settings: 20 μM test compound solution, 10 μL/well; 2 hours; DEX positive control; read-out: GR binding rate (%)
Experimental: In order to evaluate a binding activity of the present compound to GR, a GR receptor competitor assay was carried out by a fluorescence polarization method. In the assay, a GR competitive binding assay kit (manufactured by Invitrogen, cat No. P2816) was used for the assay, and a procedure was carried out according to the protocol attached to the kit. Hereinafter, the specific method will be described.
GR screening buffer: A buffer containing 10 mM of potassium phosphate (pH 7.4), 20 mM of sodium molybdate (Na2MoO4), 0.1 mM of ethylene diamine tetraacetic acid (EDTA), 5 mM of dithiothreitol (DTT), 0.1 mM of stabilizing peptide and 2% of dimethylsulfoxide was prepared.
4×GS1 solution: Fluormone™ GS1, which is a fluorescent glucocorticoid ligand, was diluted with GR screening buffer, whereby a 4 nM solution was prepared.
4×GR solution: Recombinant human GR was diluted with GR screening buffer, whereby a 16 nM solution was prepared.
After a test compound was dissolved in dimethylsulfoxide, the resulting solution was diluted with GR screening buffer, whereby a 20 μM test compound solution was prepared. In addition, DEX was similarly dissolved, whereby a DEX solution with a […] concentration was prepared, and the solution was diluted with GR screening buffer, whereby a 2 mM DEX solution was prepared. DEX was used as positive control.
• 1) The test compound solution was added in an amount of 10 μL into each well of a 384-well plate. • 2) 4×GS1 solution and 4×GR solution were added in an amount of 5 μL into each well, respectively. • 3) GR screening buffer was added in an amount of 10 μL/well into each well in place of the test compound solution, which was made a negative control. • 4) A 2 mM of DEX was added in an amount of 10 μL/well into each well in place of the test compound solution, which was made a positive control. • 5) The plate was incubated in a dark place at room temperature for 2 hours, and fluorescence polarization of each well was measured. (Calculation Equation of GR Binding Ratio)
A GR binding ratio (%) was calculated from the following equation. GR binding ratio (%)=100×{1−(fluorescence polarization of test compound solution−average value of fluorescence polarization of positive control solution)/(average value of fluorescence polarization of negative control solution−average value of fluorescence polarization of positive control solution)}

Recombinant human GR, sequence (P04150 whole entry): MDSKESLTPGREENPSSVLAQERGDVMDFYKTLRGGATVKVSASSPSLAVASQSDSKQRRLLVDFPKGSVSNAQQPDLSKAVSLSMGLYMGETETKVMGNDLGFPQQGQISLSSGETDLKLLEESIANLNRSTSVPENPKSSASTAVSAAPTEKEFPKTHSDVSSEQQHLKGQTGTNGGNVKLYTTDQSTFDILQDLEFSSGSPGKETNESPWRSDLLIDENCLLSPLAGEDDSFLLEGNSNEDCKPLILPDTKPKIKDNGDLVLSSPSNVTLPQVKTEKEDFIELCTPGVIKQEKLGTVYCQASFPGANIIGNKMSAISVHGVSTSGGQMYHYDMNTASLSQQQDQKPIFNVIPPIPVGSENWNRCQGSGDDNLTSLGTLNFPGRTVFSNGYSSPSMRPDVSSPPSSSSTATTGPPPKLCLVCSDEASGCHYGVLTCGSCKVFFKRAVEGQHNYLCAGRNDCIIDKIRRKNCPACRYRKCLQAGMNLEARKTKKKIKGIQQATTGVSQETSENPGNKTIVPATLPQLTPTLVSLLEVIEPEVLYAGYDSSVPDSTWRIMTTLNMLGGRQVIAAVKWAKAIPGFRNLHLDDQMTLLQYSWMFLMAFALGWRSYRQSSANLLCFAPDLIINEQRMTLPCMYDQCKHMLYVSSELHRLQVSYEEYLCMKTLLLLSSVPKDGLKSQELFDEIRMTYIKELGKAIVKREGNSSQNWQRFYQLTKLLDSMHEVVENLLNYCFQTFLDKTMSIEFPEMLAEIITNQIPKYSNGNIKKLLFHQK

inhibition at 10 µM [3]: > 99%
Compound: COc1cc(OC[C@H](C)OP(=O)(O)O)ccc1-c1ccc2c(c1COc1cc(F)ccc1C)N(C)C(=O)C(C)(C)N2 [Compound 14-1, (S)-8-(5-fluoro-2-methylphenoxymethyl)-7-[4-(2-phosphonohydroxypropyl)oxy-2-methoxyphenyl]-1,3,3-trimethyl-3,4-dihydro-1H-quinoxalin-2-one]
Eye congestion inhibitory ratio (%) [1]: 22%
Emax [2]: 86%

From patent publication US10189796B2, “[4-(1,3,3-trimethyl-2-oxo-3,4-dihydro-1H-quinoxalin-7-yl)phenoxy]ethyloxy compound or salt thereof” (SANTEN PHARMACEUTICAL CO., LTD., priority 2015, dated 2019)
